Measured values reported in patent publication US12458647B2, “Macrocyclic derivative and use thereof” (Guangzhou Joyo Pharmatech Co., Ltd., priority 2022, dated 2025).

Experiments:
[1] = In vitro determination of whole blood to plasma concentration ratios, human; assay type: in vitro ADME; conditions: 1 μM, 37° C., 60 minutes
Description: (1) Fresh mouse and human whole blood (n≥3 for number of individual animals and n≥2 for number of individual humans) were collected in blood collection tubes containing EDTAK2 anticoagulant. Whole blood samples had to be mixed well and stored at 2-8° C. or on wet ice before use. They were used within 36 hours of whole blood collection. Blank whole blood was centrifuged at 2,000×g for 15 minutes at room temperature to obtain blank plasma. The plasma status was checked and hemolyzed plasma samples could not be used.
(2) The hematocrit (the percentage content of red blood cells in whole blood) was determined by centrifugation of whole blood samples in microhematocrit centrifuge tubes.
(3) Diclofenac (all species), chlorthalidone (mouse) or chloroquine (human) were used as control compounds.
(4) ACN solution containing 2% DMSO with a final concentration of 1 μM of the test compound was added to blank whole blood samples, and three parallel treatments were performed. The final content of the organic phase in the system should not exceed 0.5% (the content of DMSO should not exceed 0.1%). A certain volume of the drug-containing whole blood sample was pipetted to the sample receiving plate (three replicates), an equal volume of blank plasma was added, and mixed well to obtain the T0 sample.
(5) The whole blood sample containing the test compound was incubated at 37° C. with shaking for 60 minutes.
(6) After the end of incubation, a certain volume of whole blood samples containing the drug was pipetted to the sample receiving plate (three replicates) as T60-whole blood samples.
(7) The remaining whole blood samples were centrifuged at 2,000×g for 15 minutes in a 37° C. centrifuge to obtain plasma samples. A certain volume of plasma was pipetted to the sample receiving plate (three replicates) as T60-plasma samples.
(8) During sample treatment, all samples were equilibrated with the matrix (i.e., blank whole blood or blank plasma of the same volume was added) and mixed well.
(9) 1-fold volume of pure water was added to the equilibrated sample, and then a certain volume of stop solution containing internal standard compound was added to terminate the reaction.
(10) The analytes and control compounds in the samples were determined by liquid chromatography-tandem mass spectrometry (LC-MS/MS) method. The ratio of analyte peak area to internal standard peak area was used to represent the concentration in the sample.
See Table 7 for the experimental results. Wherein KB/P represents the concentration ratio of the compound in whole blood and plasma. KE/P represents the concentration ratio of the compound in red blood cells and plasma, and recovery (%) represents the recovery of the compound in whole blood.

AsPC-1 cells = test: In vitro cell proliferation experiment (5 days), AsPC-1; assay type: cell-based; conditions: AsPC-1, 5 days; read-out: Inhibitory Activity IC50
Description: (§1) RPMI 1640 medium, DMEM, Ham's F12 medium, F12K medium, IMDM and penicillin/streptomycin antibiotics were purchased from Gibco, fetal bovine serum was purchased from Hyclone, Envision multilabel plate reader (PerkinElmer). […]
(§2) The test compound was diluted by 5-fold to 8 concentrations with a pipette, i.e., from 2 mM to 25.6 nM, and replicate wells were set up for the experiment. […] Another cell plate was prepared, and the signal value was read as the maximum value (the maximum value in the following equation) on the day of dosing for data analysis.
(§3) 50 μL of cell viability chemiluminescent detection reagent was added to the cell plate and incubated at room temperature for 30 minutes to stabilize the luminescence signal. A multilabel plate reader was used for reading. […]

[2] = Pharmacokinetic study in Beagle dogs; assay type: in vivo; conditions: male Beagle dogs; for AUC0-last / Cl / T1/2 / Vd / Cmax / TMax: whole blood
Description: To evaluate the pharmacokinetic behavior of the compounds of the present disclosure in male Beagle dogs.
The compounds to be tested were dissolved in the vehicle (5% DMSO/10% solutol/85% water). Four male beagle dogs were divided into 2 groups of 2. Group 1 animals were administered a single intravenous bolus injection (i.v.) of the compounds at a dose of 1 mg/kg. Group 2 animals were administered a single dose of the compounds by gavage (p.o.) at a dose of 5 mg/kg. Whole blood samples were collected at 0.083 (intravenous bolus group only), 0.25, 0.5, 1, 2, 4, 8 and 24 hours after dosing. The LC-MS/MS method was used to determine the concentration of the test compound in whole blood samples.

RKN cell line = test: In vitro cell proliferation experiment (5 days), RKN; assay type: cell-based; conditions: read-out: Inhibitory Activity IC50
Description: as §1, §2, §3

PSN-1 cell line = test: In vitro cell proliferation experiment (5 days), PSN-1; assay type: cell-based; conditions: PSN-1, 5 days; read-out: Inhibitory Activity IC50
Description: as §1, §2, §3

Row | SMILES | KB/P (concentration ratio of the compound in whole blood and plasma) [1] | KE/P (concentration ratio of the compound in red blood cells and plasma) [1] | Recovery (%) of the compound in whole blood [1] [%] | IC50 (AsPC-1 cells) [nM] | AUC0-last ([2]; i.v. 1 mg/kg) [µM·h] | Cl ([2]; i.v. 1 mg/kg) [mL/min/kg] | T1/2 ([2]; i.v. 1 mg/kg) [h] | Vd ([2]; i.v. 1 mg/kg) [L/kg] | F(%) ([2]; p.o. 5 mg/kg) | AUC0-last ([2]; p.o. 5 mg/kg) [µM·h] | Cmax ([2]; p.o. 5 mg/kg) [nM] | T1/2 ([2]; p.o. 5 mg/kg) [h] | TMax ([2]; p.o. 5 mg/kg) [h] | IC50 (RKN cell line) [nM] | IC50 (PSN-1 cell line) [nM]
1 | CCn1c(-c2cc(N3CCN(C)CC3)cnc2C(C)OC)c2c3cc(ccc31)-c1csc(n1)CC(NC(=O)C1C(C)C1C)C(=O)N1NC(C(=O)OCC(C)(C)C2)C2CC1C2 (single isomer, unassigned) [Compound 6A] | 3.5 | 6.5 | 96.4 | 2.1 | 7.91 | 1.9 | 24.5 | 3.8 | 22 | 8.72 | 472 | 22.4 | 1.5 | 4.5 | 5.3
2 | CCn1c(-c2cc(N3CCN(C)CC3)cnc2C(C)OC)c2c3cc(ccc31)-c1csc(n1)CC(NC(=O)C1CC1C)C(=O)N1NC(C(=O)OCC(C)(C)C2)C2CC1C2 (single isomer, unassigned) [Compound 7A] | 2.6 | 5.2 | 102.6 | 6.6 | 4.712 | 4.2 | 10.3 | 3.0 | 33.2 | 7.632 | 618 | 12.0 | 1.0 | 7.5 | 10.5
